Test results published in US6808877B2, “Ligands for FPR class receptors that induce a host immune response to a pathogen or inhibit HIV infection” (priority 2000, dated 2004).
Where two headings read alike, the source gives them in different places.

What was measured:
monocytes [1] = assay: Ca2+ mobilization in monocytes (Fura-2); format: cell-based, human
Experimental: (§1) Calcium mobilization was measured by incubating 2×10^7/ml cells in loading medium (DMEM, 10% FBS) with 5 μM Fura-2 AM (Molecular Probes, Eugene, Oreg.) for 30 min at room temperature in the dark. The dye-loaded cells were washed 3 times with loading medium and resuspended in saline buffer [138 mM NaCl, 6 mM KCl, 1 mM CaCl2, 10 mM HEPES (pH 7.4), 5 mM Glucose, 0.1% BSA] at a concentration of 1×10^6/ml. The cells were then transferred into quartz cuvettes (2 ml) which were placed in a luminescence spectrometer (LS-50B, Perkin-Elmer, Beaconsfield, England). Stimulants at different concentrations were added in a volume of 20 μl to each cuvette at the indicated time points. The ratio of fluorescence at 340 and 380 nm wavelength was calculated using a FL WinLab program (Perkin-Elmer).
Calcium mobilization was assayed by incubating 2×10^7/ml of monocytes, neutrophils, FPRL1 or FPR transfectants in loading buffer containing 138 mM NaCl, 6 mM KCl, 1 mM CaCl2, 10 mM HEPES (pH 7.4), 5 mM glucose, 0.1% BSA with 5 μM Fura-2 (Sigma) at 37° C. for 30 min. The dye-loaded cells were washed and resuspended in fresh loading buffer. The cells were then transferred into quartz cuvettes (10^6 cells in 2 ml) which were placed in a luminescence spectrometer LS50 B (Perkin-Elmer Limited, Beaconsfield, England). Stimulants at different concentrations were added in a volume of 20 μl to the cuvettes at indicated time points. The ratio of fluorescence at 340 and 380 nm wavelength was calculated using the FL WinLab program (Perkin-Elmer).

macrophages = conditions: compared to cells treated with medium alone
monocytes [2] = assay: Ca2+ mobilization of monocytes in response to chemokines after preincubation (heterologous desensitization); format: cell-based, human; conditions: 60 min, 37° C.
Experimental: Calcium mobilization was measured by incubating monocytes (2×10^7/ml) in loading medium (DMEM, 10% FCS) with 5 μM Fura-2 AM (Molecular Probes, Eugene, Oreg.) for 30 min at room temperature in the dark. The dye-loaded cells were washed 3 times and resuspended in saline buffer (138 mM NaCl, 6 mM KCl, 1 mM CaCl2, 10 mM Hepes pH 7.4, 5 mM glucose, 0.1% BSA). The cells were then transferred into quartz cuvettes (2×10^6 cells in 2 ml) which were placed in a luminescence spectrometer (LS-50B, Perkin-Elmer, Beaconsfield, UK). Stimulants at different concentrations were added in a volume of 20 μl to each cuvette at the indicated time points. The ratio of fluorescence at 340 and 380 nm was calculated using a FL-WinLab program (Perkin Elmer). To examine the effect of fMLP, monocytes were preincubated with 10^−6 M fMLP or with medium alone for 60 min at 37° C. The cells were thoroughly washed and then were stained with Fura-2 for the calcium mobilization desensitization. The results are representative of at least three experiments performed.
as §1

HIV-1BAL-env = assay: HIV-1 env fusion with human blood monocytes; format: cell-based
CCR5 = assay: 125I-MIP-1β binding to monocytes; parameters: species or system human
Experimental: Rocky Hill, N.J.). After incubation, the cells were washed with DPBS and centrifuged through a 10% sucrose/DPBS cushion. The tips of tubes containing cell pellets were cut and the cell-associated radioactivity was determined in a gamma counter. The results were presented as counts per minute (cpm) on 2×10^6 monocyte and were representative of at least three experiments performed.

[3] = test system: parental or mock transfected cells; assay: Ca2+ mobilization in parental or mock transfected rat basophil cell line and HEK 293 cells; format: cell-based
FPRL1 = target: T1, FPRL1 (Homo sapiens, UniProt P25090); format: cell-based
T1 construct: expressed in transfected cells; host or cells: HEK 293
T1 sequence (P25090 1-351): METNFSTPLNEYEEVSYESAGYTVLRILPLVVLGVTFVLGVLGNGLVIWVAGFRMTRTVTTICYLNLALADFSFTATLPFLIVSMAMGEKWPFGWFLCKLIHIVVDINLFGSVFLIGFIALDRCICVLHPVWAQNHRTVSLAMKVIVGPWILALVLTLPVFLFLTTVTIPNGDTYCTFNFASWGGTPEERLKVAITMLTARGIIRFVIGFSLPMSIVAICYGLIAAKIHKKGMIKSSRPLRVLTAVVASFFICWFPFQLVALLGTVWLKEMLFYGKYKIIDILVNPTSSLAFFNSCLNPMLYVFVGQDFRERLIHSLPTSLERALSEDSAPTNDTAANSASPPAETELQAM

monocytes [4] = assay: Monocyte migration in response to MIP-1β after pretreatment; format: cell-based, human; conditions: fMLP 10^−6 M, 37° C.
Experimental: Monocyte migration was assessed by a 48-well micro-chemotaxis chamber technique. 25 μl MIP-1β diluted in assay medium (RPMI 1640 with 1% BSA and 25 mM Hepes) was placed in the lower compartment of the chemotaxis chamber. 50 μl cell suspension (1×10^6 cell/ml) was placed in the upper compartment of the chamber. The upper and lower compartments were separated by a polycarbonate filter (5 μm pore-size, Neuroprobe, Cabin John, Md.). The chamber was incubated at 37° C. for 90 min in humidified air with 5% CO2. At the end of the incubation, the filter was removed, fixed and stained with Diff-Quik (Harlew, Gibbstown, N.J.). The migrated cells in three high-powered fields (HPF) obtained in triplicates (400×) were counted by light microscopy after coding the samples. The results are expressed as the net mean (±SD) number of migrated cells in 3 HPF after subtraction of spontaneous migration. At least three experiments were performed with same results.

FPR = target: T2, FPR (Homo sapiens, UniProt P21462); assay: Migration of ETFR cells; format: cell-based; conditions: ETFR cells (overexpressing FPR)
T2 construct: H. Ali and R. Snyderman (Duke University); host or cells: RBL-2H3 rat basophilic leukemia cells
T2 sequence (P21462 1-350): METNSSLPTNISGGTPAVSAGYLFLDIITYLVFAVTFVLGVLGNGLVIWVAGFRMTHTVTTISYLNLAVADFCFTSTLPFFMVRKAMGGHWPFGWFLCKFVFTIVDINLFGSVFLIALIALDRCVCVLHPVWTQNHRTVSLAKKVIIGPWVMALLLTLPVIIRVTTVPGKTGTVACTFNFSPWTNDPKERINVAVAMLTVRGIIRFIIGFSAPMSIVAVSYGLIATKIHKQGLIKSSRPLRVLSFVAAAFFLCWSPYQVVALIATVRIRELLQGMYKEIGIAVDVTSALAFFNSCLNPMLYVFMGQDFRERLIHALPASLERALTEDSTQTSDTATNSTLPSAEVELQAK

T lymphocytes = assay: T lymphocyte chemotaxis; format: cell-based, human

Compound | response to W peptide (Ca2+ flux) (monocytes [1]; concentrations in the micromolar range) | signaling of V3 peptide on cross-desensitization (monocytes [1]; high concentration of fMLP (1 μM), V3 1.5 μM) | effect on W peptide-induced Ca2+ flux (monocytes [1]; low concentrations (nM range)) | viability of macrophages (macrophages) | Ca2+ flux in response to RANTES and MIP-1α after pretreatment (monocytes [2]; fMLP 10^−6 M) | HIV-1 env fusion (HIV-1BAL-env) | specific binding for 125I-MIP-1β after treatment (CCR5; monocytes treated for 1 h) | binding of 125I-MIP-1β after treatment (CCR5; monocytes treated for up to 30 min at 37° C.) | displacement of 125I-MIP-1β binding (CCR5; monocytes, high concentrations as competitor) | Ca2+ mobilization [3] | migration / chemotaxis (FPRL1) | chemotactic response to MIP-1β after pretreatment (monocytes [4]) | Ca2+ mobilization (monocytes [1]) | attenuation of the cell response to chemokines including SDF-1α on sequential stimulation (monocytes [1]; V3 peptide 1.5 μM) | migration / chemotaxis (FPR) | cell response (Ca2+) to MCP-1 and fMLP after preincubation (monocytes [2]; 1.5 μM) | cell response (Ca2+) to RANTES and SDF-1α after preincubation (monocytes [2]; 1.5 μM) | migration / chemotaxis (FPRL1; FPRL1/293 cells) | chemotactic activity (T lymphocytes)
CSCC[C@H](NC=O)C(=O)N[C@@H](CC(C)C)C(=O)N[C@@H](Cc1ccccc1)C(=O)O [fMLP, N-formyl-methionyl-leucyl-phenylalanine] | significantly attenuated | attenuated | limited effect | did not affect the viability of macrophages | reduced Ca^2+ flux | inhibition of HIV-1 env fusion with blood monocytes | markedly reduced | only a marginally reduced binding | did not displace any | did not induce Ca^2+ mobilization | failed to migrate | progressively reduced chemotactic response |  |  |  |  |  |  | 
TRPNYNKRKRIHIGPGRAFYTTKNIIGTIRQAH-NH2 [V3 peptide] |  |  |  |  |  |  |  |  |  |  |  |  | mobilized Ca^2+ | did not, however, attenuate | low level of chemotaxis response | minimally affected | significantly reduced | induced both Ca^2+ mobilization and chemotaxis | weak chemoattractant
